Measurements published in patent US10975043B2, “Heterocyclic compound” (TAKEDA PHARMACEUTICAL COMPANY LIMITED, priority 2014, dated 2021).

What was measured:
[1] = molecular target: T1, RBP4 (Homo sapiens, UniProt P02753); details: consequently inhibits formation of a complex with TTR; cited from earlier work
[2] = tested on: RBP4; details: administration to an animal; cited from earlier work
[3] = molecular target: T2, RBP4 (Mus musculus, UniProt Q00724); test: Blood RBP4-lowering action in C57BL/6J mouse, plasma RBP4 by ELISA; format: in vivo; details: mean±SD, n=4 or 5
T2 construct: from tissue; host or cells: plasma of male C57BL/6J mice (Japan Charles River)
Procedure: The blood RBP4-lowering action of the compound of the present invention was evaluated using C57BL/6J mouse.
Male 7- to 10-week-old C57BL/6J mice (Japan Charles River) were acclimation reared under free food ingestion conditions on CE-2 solid feed (CLEA Japan, Inc.) for 4 to 6 days, and randomly grouped (4 or 5 per group). On the day of the test, blood samples were collected from the tail vein, and plasma was separated (0 hr value). Thereafter, a test compound (Example 1, 2, 3, 4, 5, 6, 7 or 8) was orally administered at a dose of 3 mg/kg or 10 mg/kg (solvent: 0.5% methylcellulose solution (10 mL/kg)). At 8 and 24 hr after the compound was administered, blood samples were collected from the tail vein and plasma was separated. A 0.5% methylcellulose solution (10 mL/kg) was orally administered to the control group.
The amount of RBP4 in the collected plasma was measured by the ELISA method. Using rabbit anti-mouse RBP4 polyclonal antibody (Hokudo Co., Ltd.), RBP4 was quantified by the following process. A 96 well ELISA plate was coated with 50 μg/mL antibody (100 μL), and stood at 4° C. overnight or at room temperature for 2 hr. After blocking with BlockAce (Dainippon Pharmaceutical Co., Ltd.), 100 μL of mouse RBP4 or sample was added and the plate was stood at room temperature for 2 hr, washed with PBS-0.5% Tween20, added with HRP-labeled anti-RBP4 antibody (prepared by labeling RBP4 polyclonal antibody (Hokudo Co., Ltd.) with HRP (DOJINDO LABORATORIES)) (100 μL), and stood at room temperature for 1 hr. After washing, TMB (Sigma) was added at room temperature for 20 min to allow for color development. The reaction was quenched with 2N sulfuric acid and the absorbance at A450 nm was measured by a platereader. Variation from the initial value of each individual was taken as the relative value to the control group (initial value/control value, %) at each time point. The results are shown below in mean±standard deviation (n=4 or 5).

[4] = molecular target: T1, RBP4; test: Binding assay by Retinol-RBP4-TTR ELISA; parameters: the culture supernatant containing secreted hRBP4-His was recovered; made in house; host or cells: FreeStyle 293 expression system (Invitrogen), secreted into the culture supernatant; details: 10 μM compound; retinol 50 nM; His-tagged human RBP4, biotinylated human TTR; read-out: human RBP4 binding inhibitory activity (% at 10 μM)
Procedure: Using the Retinol-RBP4-TTR ELISA system shown below, the action of the compound of the present invention to inhibit the binding of RBP4 and retinol and TTR was evaluated.
1F: Binding Assay by Retinol-RBP4-TTR ELISA
This ELISA system detects a complex with RBP4 and TTR based on the retinol dependent binding of RBP4 to TTR.
The His-tagged human RBP4 used was prepared in the above-mentioned 1C.
The biotinylated human TTR used was prepared in the above-mentioned 1E.
Streptavidin (20 μl) (10 μg/ml Streptavidin type II (Wako Pure Chemical Industries, Ltd.), 10 mM Tris-HCl (pH 7.5), 10 mM NaCl) was added to a 384 well blackplate (Nunc MaxiSorp, Thermo Fisher Scientific Inc.), and the plate was centrifuged (1000 rpm, 1 min) and coated at 4° C. overnight. The plate was washed twice with PBST (PBS, 0.05% Tween 20, 100 μl/well), and blocked with 25% Block Ace (Snow Brand Milk Products Co., Ltd., PBS, 100 μl/well). The plate was subjected to centrifugation (1000 rpm, 1 min), and incubated at room temperature for 4 hr or 4° C. overnight. The plate was washed twice with PBST (PBS, 0.05% Tween 20, 100 μl/well), and biotinylated human TTR (stock solution concentration 1.0 mg/ml) diluted 750-fold with PBST was added at […]. The plate was subjected to centrifugation (1000 rpm, 1 min), and further stood at room temperature for 1.5 hr or 4° C. overnight. The plate was washed 3 times with PBST (100 μl/well), and His-tagged human RBP4 (stock solution concentration 1.28 mg/ml) diluted 4000-fold with a reaction buffer (50 mM Tris-HCl, 150 mM NaCl, 0.005% Tween 20, 1 mM DTT, 0.1% BSA) was added at 10 μl/well. The dilution of the compound (200-fold concentration) was prepared with DMSO, and 1.6 μl each was added to a reaction buffer (320 μl) containing retinol (50 nM) (Sigma-Aldrich Co.). A reaction buffer (320 μl) containing retinol and added with DMSO was used as a positive control, and a reaction buffer (320 μl) not containing retinol and added with DMSO was used as a negative control. A mixed solution of retinol and the compound was added to the plate at 15 μl/well. The plate was stirred in a plate mixer, centrifuged (1000 rpm, 1 min), and reacted at room temperature for 2 hr. Anti-His HRP-conjugated antibody (QIAGEN) solution diluted with a reaction buffer was added at 10 μl/well, centrifuged (1000 rpm, 1 min), and reacted at room temperature for 30 min. The plate was washed 3 times with PBST (100 μl/well), SuperSignal ELISA Femto Maximum Sensitivity Substrate reagent (PIERCE, Thermo Fisher Scientific Inc.) was added at 30 μl/well, and the luminescence was measured by a plate reader (Envision).
The binding inhibitory activity of the compound was determined by 100×(positive control value−test compound value)/(positive control value−negative control value).

[5] = tested on: A2E in the eyeball of ABCA4 KO mouse; test: Suppression of A2E accumulation in the eyeball of ABCA4 KO mouse, A2E by HPLC; format: in vivo; details: 8 or 12 weeks
Procedure: The suppressive action for accumulation of retinoid metabolite bis-retinoid N-retinylidene-N-retinylethanolamine (A2E) in the eyeball, of the compound of the present invention, was evaluated using ATP-binding cassette A4 knockout (ABCA4 KO) mouse. A2E is the major constituent component of Lipofuscin in the eyeball, and is involved in the onset and pathology progression in atrophic age-related macular degeneration and Stargardt's disease. ABCA4 KO mouse was confirmed to show remarkable accumulation of A2E, Lipofuscin along with aging, and is known as an animal model of atrophic age-related macular degeneration and Stargardt's disease.
8-Week-old male ABCA4 KO mice were randomly grouped, and 0.5% methylcellulose solution was orally administered to the control group, and 0.5% methylcellulose suspension of a compound at a dose shown in the following Table was orally administered to the test compound group, each once per day at 10 mL/kg. Each group contained 6 or 7 mice. After repetitive administration for 8 or 12 weeks, eyeball was isolated under anesthesia.
In the eyeball, A2E was measured by the HPLC method. A2E reference standard was synthesized from all-trans retinal, ethanolamine in acetic acid-added ethanol. First, 0.3 mL of PBS and zirconia beads were added to the eyeball, and homogenate was prepared using Mixer Mill MM 300 (QIAGEN). A chloroform:methanol (2:1) solution (0.8 mL) was added and the mixture was stirred for […]. The lower layer was separately taken in a different tube, the chloroform:methanol (2:1) solution (0.6 mL) was further added and the mixture was stirred for 5 min. The lower layer was combined with one separated earlier, and dried to solidness by blowing nitrogen gas. 0.05 mL of 85% acetonitrile solution was added and the mixture was stirred to give a measurement sample. For HPLC, Alliance e2695 and Photo diode array 2998 (PDA) (Waters) were used, and Empower 2 was used as an analysis software. The column used was Atlantis dC18 (3 μm, 3.9×150 mm) (Waters), and the column temperature was set to 40° C. […] Quantification was performed at ultraviolet absorbance at 440 nm by PDA.

Row | RBP4 (initial value/control value %) 8 hr later ([3]; 10 mg/kg single oral dose) | RBP4 (initial value/control value %) 24 hr later ([3]; 10 mg/kg single oral dose) | inhibition at 10 µM [4] | SMILES | further results
1 |  |  |  | CC1=C(/C=C/C(C)=C/C=C/C(C)=C/C(=O)Nc2ccc(O)cc2)C(C)(C)CCC1 [fenretinide, 4-hydroxy(phenyl)retinamide] | binding of RBP4 and retinol [1]: inhibits binding of RBP4 and retinol; blood RBP4 [2]: induces lowering of blood RBP4
2 | 37.25 ± 11.45% | 61.81 ± 14.79% | 98% | O=C(O)COc1cnc(-c2cc(C(F)(F)F)cc(C(F)(F)F)c2)nc1 [Example 1, ((2-(3,5-bis(trifluoromethyl)phenyl)pyrimidin-5-yl)oxy)acetic acid] | 
3 | 43.66 ± 4.92% | 71.75 ± 8.77% |  | COC(=O)COc1ccc(-c2cc(C(F)(F)F)cc(C(F)(F)F)c2)nc1 [Example 7, methyl 2-((6-(3,5-bis(trifluoromethyl)phenyl)pyridin-3-yl)oxy)acetate] | 
4 | 23.93 ± 5.84% | 64.87 ± 16.79% | 99% | O=C(O)COc1ccc(-c2cc(C(F)(F)F)cc(C(F)(F)F)c2)nc1 [Example 2, ((6-(3,5-bis(trifluoromethyl)phenyl)pyridin-3-yl)oxy)acetic acid] | A2E (% of control value) ([5]; 10 mg/kg oral once per day): 77.63 ± 9.06 % of control value
5 |  |  | 100% | O=C(O)COc1ccn(-c2cc(C(F)(F)F)cc(C(F)(F)F)c2)n1 [Example 5, ((1-(3,5-bis(trifluoromethyl)phenyl)-1H-pyrazol-3-yl)oxy)acetic acid] | RBP4 (initial value/control value %) 8 hr later ([3]; 3 mg/kg single oral dose): 32.14 ± 6.82%; RBP4 (initial value/control value %) 24 hr later ([3]; 3 mg/kg single oral dose): 36.20 ± 1.87%; A2E (% of control value) ([5]; 3 mg/kg oral once per day): 59.10 ± 10.33 % of control value
6 | 58.17 ± 8.61% | 79.70 ± 5.22% |  | CCOC(=O)COc1cnc(-c2cc(C(F)(F)F)cc(C(F)(F)F)c2)nc1 [Example 6, ethyl 2-((2-(3,5-bis(trifluoromethyl)phenyl)pyrimidin-5-yl)oxy)acetate] | 
7 |  |  | 100% | O=C(O)COc1nc(-c2cc(C(F)(F)F)cc(C(F)(F)F)c2)co1 [Example 4, ((4-(3,5-bis(trifluoromethyl)phenyl)-1,3-oxazol-2-yl)oxy)acetic acid] | RBP4 (initial value/control value %) 8 hr later ([3]; 3 mg/kg single oral dose): 19.86 ± 11.85%; RBP4 (initial value/control value %) 24 hr later ([3]; 3 mg/kg single oral dose): 54.29 ± 19.15%; A2E (% of control value) ([5]; 1 mg/kg oral once per day): 79.47 ± 14.53 % of control value
8 | 20.70 ± 1.55% | 49.64 ± 10.48% | 100% | O=C(O)CCn1ccc(-c2cc(C(F)(F)F)cc(C(F)(F)F)c2)n1 [Example 3, 3-(3-(3,5-bis(trifluoromethyl)phenyl)-1H-pyrazol-1-yl)propanoic acid] | A2E (% of control value) ([5]; 10 mg/kg oral once per day): 73.90 ± 15.58 % of control value
